“Also recorded” adds a separate entry of the source. Read-outs that look alike come from different tables or passages of the source.
Columns and labels:
[1] = tested on: ΔF508-CFTR (C127-ΔF508-low cells); assay: immunoprecipitation analysis for mature band C-CFTR in C127-ΔF508-low cells; assay type: cell-based; details: DSG 10 to 100 μg/ml, 48 to 72 h
From the text: Detailed procedures for preparing cell lysates, immunoprecipitation, phosphorylation of CFTR using protein kinase A and [γ^32 P]ATP, and polyacrylamide gel electrophoresis have all been described previously (Cheng et al., (1995), supra.; Marshall et al., supra.).
C127-ΔF508-low (mouse mammary tumor) is a recombinant cell line stably transfected with the cDNA encoding the mutant ΔF508-CFTR (Cheng et al. (1995), supra.; Marshall et al. (1994), J. Biol. Chem. 269: 2987-2995). […] C127-mock is a cell line that has been stably transfected with the backbone of the expression vector used to generate C127-ΔF508-low (Cheng et al. (1995), supra.). LLCPK1 -ΔF508 (pig kidney epithelial) is a recombinant cell line stably expressing low levels of the mutant ΔF508-CFTR protein (Marshall et al., supra.). The details of the generation, characterization and routine propagation of these cell lines has been described (Cheng et al. (1995), supra.; Marshall et al., supra.).
To test whether treatment with DSG may interfere with the ability of hsp70 to retain ΔF508-CFTR in the ER, recombinant C127 cells expressing ΔF508-CFTR were seeded onto glass coverslips and were exposed to DSG (10 to 100 μg/ml) (Bristol Myers Squibb, Seattle, Wa.) for 48 to 72 h. Analysis for evidence of mature band C-CFTR (Cheng et al. (1990), supra.) which would be indicative of processing of ΔF508-CFTR in the Golgi was performed. […]

[2] = toxicity of DSG to cells in culture; assay type: cell-based; details: up to 72 h; read-out: concentrations toxic to most of the cell types tested
Method: Cells were treated with up to 100 μg/ml of DSG for up to 72 h. Concentrations of DSG >50 μg/ml were toxic to most of the cell types tested. Since DSG is modified by polyamine oxidase present in fetal bovine serum (Tepper et al., supra.), cells were routinely replenished with fresh medium containing DSG and aminoguanidine every 24 h. As a control in some experiments, C127 cells were also treated with 5 mM sodium butyrate for 24 h. to enhance expression of ΔF508-CFTR (Cheng et al. (1995), supra.). As another control, cells were cultured at 23° C. for 24 to 48 h. to facilitate folding of the mutant ΔF508-CFTR at the ER.
CFT1 and JME/CF15 are two immortalized human CF airway epitheliavarill lines which contain the ΔF508 variant (Jefferson et al. (1990), Am. J. Physiol. 259: L496-L505; Yankaskas et al., (1993), Am. J. Physiol. 264: C1219-C1230). Cells were treated with up to 100 μg/ml of DSG for up to 72 h. Concentrations of DSG >50 μg/ml were toxic to most of the cell types tested. Since DSG is modified by polyamine oxidase present in fetal bovine serum (Tepper et al., supra.), cells were routinely replenished with fresh medium containing DSG and aminoguanidine every 24 h. As a control in some experiments, cells were cultured at 23° C. for 24 to 48 h. to facilitate folding of the mutant ΔF508-CFTR at the ER. […]

hsc70 (hsp70) = details: cited from earlier work
hsp90 = details: read-out: kds, DSG-hsp complexes; cited from earlier work

N=C(N)NCCCCCCC(=O)NC(O)C(=O)NCCCCNCCCN (stereo not drawn) [DSG, deoxyspergualin]
mature band C form of CFTR [1]: the presence of any mature band C-form of CFTR could not be demonstrated; also recorded: no discernible evidence of the mature band C form of CFTR
MCC at 72 h [2]: > 50 µg/mL
Kd (hsc70 (hsp70); hsc70, Nadeau et al. (1994), read-out: Kd value for DSG binding to hsc70): 4 µM
Kd (hsc70 (hsp70); hsp70, read-out: kds, DSG-hsp complexes): 4 to 5 µM
affinity for hsps, in words (hsc70 (hsp70); hsps, Nadler et al. (1992), Nadeau et al. (1994)): Pure human hsp90 and hsp70 have equivalent affinities for DSG
Kd (hsp90): 4 to 5 µM
